T1: human IAP (Homo sapiens, UniProt P09923)
T1 construct: made in house; host or cells: COS-1 cells, transient expression from pCMV-Script; conditioned serum-free medium used as enzyme stock
T1 sequence (P09923 20-503 limits assumed): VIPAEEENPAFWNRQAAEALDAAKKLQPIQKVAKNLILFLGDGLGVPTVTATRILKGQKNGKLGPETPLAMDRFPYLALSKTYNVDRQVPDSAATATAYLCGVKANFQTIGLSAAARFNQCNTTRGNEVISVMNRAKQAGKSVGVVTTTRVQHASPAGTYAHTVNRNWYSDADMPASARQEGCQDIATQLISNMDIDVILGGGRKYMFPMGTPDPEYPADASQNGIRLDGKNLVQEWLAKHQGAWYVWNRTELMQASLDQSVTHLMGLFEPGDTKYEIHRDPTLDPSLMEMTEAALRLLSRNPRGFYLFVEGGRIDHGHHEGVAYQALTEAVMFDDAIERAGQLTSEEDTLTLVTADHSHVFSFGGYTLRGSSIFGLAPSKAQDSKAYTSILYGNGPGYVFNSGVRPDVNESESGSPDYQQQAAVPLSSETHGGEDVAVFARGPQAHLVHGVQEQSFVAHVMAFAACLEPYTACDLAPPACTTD


Tests used:
human IAP = target: T1, human IAP; assay: IAP assay using CDP-Star (chemiluminescent, dose response); assay type: biochemical; settings: IAP modulators, Tables A-H, positive = inhibitor; for IC50: negative Hill coefficient = activator; for n (Hill coefficient): negative = activator
Description: An expression vector pCMV-Script containing cDNA for human IAP, TNAP, PLAP, GCAP, mouse TNAP, dIAP, EAP or gIAP in secreted form (FLAG-tagged) is transfected into COS-1 cells for transient expression using a standard electroporation method. The GPI anchoring site is replaced by a FLAG sequence to make the proteins secreted into the media as well as to test their kinetics in a form immobilized by anti-FLAG antibody (Narisawa, et al, 2007). Medium is changed to serum free medium Opti-MEM (Invitrogen) 24 h later, and media containing secreted proteins was collected 66 hr after electroporation. Conditioned medium filtered by a 2 μm cellulose acetate membrane is supplemented with 0.1% BSA, aliquotted and stored at −80° C.
Human IAP is produced on a large scale to be used in the primary high throughput screening. For a maximum of 200,000 wells including a blank and negative control in each plate, approximately 1600 ml of the recombinant human IAP working solution (8 μl/well×200,000) is used. The working solution is a 1:80 dilution of the stock solution that has AP activity showing ΔOD405 (velocity) ˜300 in 5 min pNPP calorimetric assay. Therefore a minimum of 20 ml of the stock solution (1600÷80) is needed. An enzyme stock is prepared from ten 15 cm φ plates of COS-1 cells using 100 μg plasmid DNA [ten plates×(10 μg DNA/1×10^7 cells per 15 cm φ plate)].
Compound aliquots (4 μL at […] in 10% DMSO) are added to 8 μL of human IAP working solution of a the human IAP stock solution diluted 1:80 in assay buffer (250 mM DEA, pH 9.8, −2.5 mM MgCl2, −0.05 μM ZnCl2). The solution of substrate CDP-Star, disodium 2-chloro-5-(4-methoxyspiro{1,2-dioxetane-3,2′(5′-chloro)-tricyclo[3.3.1.1]3,7 decan}-4-yl)-1-phenyl phosphate (New England Biolabs), (8 μL of 125 μM in water) is added to each well. […] Dispensing of human IAP working solution and CDP-Star is processed using a WellMate bulk dispenser (Matrix). Plates (white 384-well small volume Greiner 784075) are incubated at room temperature for 30 min, and the luminescence signal is measured using a PerkinElmer EnVision multi-mode plate reader. L-Phenylalanine (1 mM final concentration) and 2% DMSO is utilized as an inhibition control and blank, respectively. Data analysis is processed using CBIS software (ChemInnovations, Inc).
The compound is diluted ([…] to 0.03 mM) and incubated with the human IAP enzyme for 30 min prior to addition of substrate. At the same time, human TNAP, human PLAP, human GCAP, mouse TNAP, mouse dIAP, mouse EAP and mouse gIAP is tested to determine enzyme specificity.

[1] = Kinetic parameters of recombinant mouse dIAP, gIAP and EAP using p-NPP as substrate; assay type: biochemical
Description: The epithelium of the mouse small intestine expresses two intestine specific AP genes, Akp3 and Akp6, and low levels of Akp5, which is not intestine specific (Narisawa, et al, 2007). AP proteins encoded by Akp3, Akp5 and Akp6 were designated duodenal IAP or dIAP, embryonic AP or EAP and global IAP or gIAP, respectively.

[2] = p-NPP as substrate, pH 9.8, means ± SD

Row | Molecule | IC50 (human IAP) [µM] | n (Hill coefficient) (human IAP) | other results
1 | O=c1cc(CCO)c2c(-c3ccccc3)n[nH]c2o1 [Compound E7, 4-(2-hydroxyethyl)-3-phenylpyrano[2,3-c]pyrazol-6(1H)-one] | > 100 |  | 
2 | O=C1C2CCCCC2C(=O)N1c1ncn[nH]1 (centres unmarked) [Compound F1, 2-(1H-1,2,4-triazol-5-yl)-hexahydro-1H-isoindole-1,3(2H)-dione] | 13.8 | −2.03 | 
3 | O=C1C2CCCCC2C(=O)N1c1nc(Cc2ccccc2)n[nH]1 (centres unmarked) [Compound F2, 2-(3-benzyl-1H-1,2,4-triazol-5-yl)-hexahydro-1H-isoindole-1,3(2H)-dione] | 0.0613 | 1.01 | 
4 | O=C1C2CCCCC2C(=O)N1c1nc(CCc2ccccc2)n[nH]1 (centres unmarked) [Compound F3, 2-(3-phenethyl-1H-1,2,4-triazol-5-yl)-hexahydro-1H-isoindole-1,3(2H)-dione] | 1.75 | 0.694 | 
5 | O=C1C2CC=CCC2C(=O)N1c1ncn[nH]1 (centres unmarked) [Compound F4, 2-(1H-1,2,4-triazol-5-yl)-3a,4,7,7a-tetrahydro-1H-isoindole-1,3(2H)-dione] | 34.5 | −1.61 | 
6 | O=C1C2CC=CCC2C(=O)N1c1nc(-c2ccccc2)n[nH]1 (centres unmarked) [Compound F5, 2-(3-phenyl-1H-1,2,4-triazol-5-yl)-3a,4,7,7a-tetrahydro-1H-isoindole-1,3(2H)-dione] | 0.0625 | 0.8895 | 
7 | O=C1C2CC=CCC2C(=O)N1c1nc(-c2ccco2)n[nH]1 (centres unmarked) [Compound F6, 2-[3-(furan-2-yl)-1H-1,2,4-triazol-5-yl]-3a,4,7,7a-tetrahydro-1H-isoindole-1,3(2H)-dione] | 0.411 | 0.894 | 
8 | O=C1C2CC=CCC2C(=O)N1c1nc(-c2cccnc2)n[nH]1 (centres unmarked) [Compound F7, 2-[3-(pyridin-3-yl)-1H-1,2,4-triazol-5-yl)-3a,4,7,7a-tetrahydro-1H-isoindole-1,3(2H)-dione] | 1.77 | 0.927 | 
9 | O=C1C2CC=CCC2C(=O)N1c1nc(Cc2ccccc2)n[nH]1 (centres unmarked) [Compound F8, 2-(3-benzyl-1H-1,2,4-triazol-5-yl)-3a,4,7,7a-tetrahydro-1H-isoindole-1,3(2H)-dione] | 0.503 | 1.28 | 
10 | O=C1C2CC=CCC2C(=O)N1c1nc(CCc2ccccc2)n[nH]1 (centres unmarked) [Compound F9, 2-(3-phenethyl-1H-1,2,4-triazol-5-yl)-3a,4,7,7a-tetrahydro-1H-isoindole-1,3(2H)-dione] | 0.724 | 0.616 | 
11 | O=C1C2C3C=CC(C3)C2C(=O)N1c1nc(CCc2ccccc2)n[nH]1 (centres unmarked) [Compound F10] |  | 0.871 | 
12 | O=C1c2ccccc2C(=O)N1c1nc(Cc2ccccc2)n[nH]1 [Compound F11, 2-(3-benzyl-1H-1,2,4-triazol-5-yl)isoindoline-1,3-dione] |  | 0.5445 | 
13 | Nc1nc(N2C(=O)C3CC=CCC3C2=O)nn1-c1ccccc1 (centres unmarked) [Compound F12, 2-(5-amino-1-phenyl-1H-1,2,4-triazol-3-yl)-3a,4,7,7a-tetrahydro-1H-isoindole-1,3(2H)-dione] | > 100 |  | 
14 | dIAP: recombinant mouse duodenal intestinal alkaline phosphatase encoded by Akp3 (protein, UniProt P24822 20-528, looked up) Intestinal-type alkaline …: VIPVEEENPAFWNKKAAEALDAAKKLQPIQTSAKNLIIFLGDGMGVPTVTATRILKGQLEGHLGPETPLAMDRFPYMALSKTYSVDRQVPDSASTATAYLCGVKTNYKTIGLSAAARFDQCNTTFGNEVFSVMYRAKKAGKSVGVVTTTRVQHASPSGTYVHTVNRNWYGDADMPASALREGCKDIATQLISNMDINVILGGGRKYMFPAGTPDPEYPNDANETGTRLDGRNLVQEWLSKHQGSQYVWNREQLIQKAQDPSVTYLMGLFEPVDTKFDIQRDPLMDPSLKDMTETAVKVLSRNPKGFYLFVEGGRIDRGHHLGTAYLALTEAVMFDLAIERASQLTSERDTLTIVTADHSHVFSFGGYTLRGTSIFGLAPLNALDGKPYTSILYGNGPGYVGTGERPNVTAAESSGSSYRRQAAVPVKSETHGGEDVAIFARGPQAHLVHGVQEQNYIAHVMASAGCLEPYTDCGLAPPADESQTTTTTRQTTITTTTTTTTTTTTPVHN |  |  | Km [1, 2]: 1100 ± 340 µM; kcat [1, 2]: 339 ± 13 s⁻¹; Km ([1]; pNPP assay, recombinant enzyme, repeated in text): 1100 ± 340 µM
15 | EAP: recombinant mouse embryonic alkaline phosphatase encoded by Akp5 (protein, UniProt P24823 19-502, looked up) Alkaline phosphatase, germ …: VIPVEEENPAFWNRKAAEALDAAKKLKPIQTSAKNLVILMGDGMGVSTVTATRILKGQQQGHLGPETQLAMDRFPHMALSKTYNTDKQIPDSAGTGTAFLCGVKTNMKVIGLSAAARFNQCNTTWGNEVVSVMHRAKKAGKSVGVVTTTSVQHASPAGTYAHTVNRGWYSDAQMPASALQDGCKDISTQLISNMDIDVILGGGRKFMFPKGTPDQEYPTDTKQAGTRLDGRNLVQEWLAKHQGARYVWNRSELIQASLNRSVTHLMGLFEPNDMKYEIHRDPAQDPSLAEMTEVAVRMLSRNPKGFYLFVEGGRIDHGHHETVAYRALTEAVMFDSAVDKADKLTSEQDTMILVTADHSHVFSFGGYTQRGASIFGLAPFKAEDGKSFTSILYGNGPGYKLHNGARADVTEEESSNPTYQQQAAVPLSSETHSGEDVAIFARGPQAHLVHGVQEQNYIAHVMAFAACLEPYTDCGLASPAGQSS |  |  | Km [1, 2]: 140 ± 30 µM; kcat [1, 2]: 8.4 ± 1.1 s⁻¹

More lines, main results first:

Row | IC50 (human IAP) [µM] | n (Hill coefficient) (human IAP) | Molecule | other results
16 |  | 0.716 | COc1ccc(Br)cc1S(=O)(=O)Nc1cnc2ccccc2c1 [Compound G1, 5-bromo-2-methoxy-N-(quinolin-3-yl)benzenesulfonamide] | 
17 | > 100 |  | COc1ccc(OC)c(S(=O)(=O)Nc2cnc3ccccc3c2)c1 [Compound G2, 2,5-dimethoxy-N-(quinolin-3-yl)benzenesulfonamide] | 
18 | > 100 |  | CCOc1ccc(Cl)cc1S(=O)(=O)Nc1cccnc1 [Compound G3, 5-chloro-2-ethoxy-N-(pyridin-3-yl)benzenesulfonamide] | 
19 | > 100 |  | COc1cc(C)c(Cl)cc1S(=O)(=O)Nc1cccnc1 [Compound G4, 2-methoxy-4-methyl-5-chloro-N-(pyridin-3-yl)benzenesulfonamide] | 
20 | > 100 |  | Cc1ccccc1S(=O)(=O)Nc1cc2ccccc2nc1Cl [Compound G6, N-(2-chloroquinolin-3-yl)-2-methylbenzenesulfonamide] | 
21 | > 100 |  | O=C(CSc1nnc[nH]1)NCCOc1ccccc1 [Compound H1, 2-(4H-1,2,4-triazol-3-ylthio)-N-(2-phenoxyethyl)acetamide] | 
22 | 86.4 | −0.563 | CC(=O)Nc1nnc(SCc2ccc(Br)cc2)[nH]1 [Compound H2, N-[5-(4-bromobenzylthio)-4H-1,2,4-triazol-3-yl)acetamide] | 
23 | 30.5 | −1.32 | Cn1ccnc1Cc1ncnc(Nc2ccccc2)n1 [Compound H3, 4-[(1-methyl-4H-imidazol-2-yl)methyl]-N-phenyl-1,3,5-triazin-2-amine] | 
24 | > 100 |  | Cc1ccc(Cl)c(N2C(=O)C(Cl)C(N3CCN(C)CC3)C2=O)c1Cl (centres unmarked) [Compound H5, 3-chloro-1-(2,6-dichloro-3-methylphenyl)-4-(4-methylpiperazin-1-yl)pyrrolidine-2,5-dione] | 

Reference: patent US20100016313A1, “INTESTINAL ALKALINE PHOSPHATASE MODULATORS AND USES THEREOF” (Burnham Institute for Medical Research, priority 2008, published 2010)
